# Test results published in patent US12708620B2, “Prodrugs and medical uses thereof” (priority 2018, dated 2026).
# Legend:
# NCI-H69 tumor xenograft = test: lung cancer (SCLC) xenograft model; assay type: in vivo, BALB/c Nude Mice; conditions: for Anti-tumor effect: 600 mg/kg IP, hypoxic status confirmed, methanesulfonate, 600 mg/kg
# Protocol: (§1) All animal models were established as xenograft model in BALB/c Nude Mice (6-8 weeks old, 17-23 grams, maintained in standard conditions and diet), following approved IACUC (Institutional Animal Care and Use Committees) protocols. Cpd.11 Ms was formulated using 2% dimethyl sulfoxide (DMSO in water for injection, starting from a Cpd.11 Ms main preparation (100-60 mg/ml in 2% DMSO in water for injection).
# After tumor cell inoculation, the animals were checked daily for morbidity and mortality. Before commencement of treatment all animals were weighed and the tumor volumes were measured using a caliper. The treatments were started when the mean tumor size reached approx. 250 mm^3. […] The date of tumor cell inoculation was denoted as day 0 (thus injections were performed at day 1, 2, 3, 4, and 5). At the time of routine monitoring, the animals were checked for any effects of tumor growth and treatments on normal behavior such as mobility, visual estimation of food and water consumption, body weight gain/loss (body weights were measured daily during the 5-day treatment and thrice weekly after treatment), eye/hair matting and any other abnormal effect. Death and observed clinical signs were recorded on the basis of the numbers of animals within each subset. Tumor volumes were measured daily during the 5-day treatment and thrice weekly after treatment in two dimensions using a caliper, and the volume was expressed in mm3 using the formula: V=0.5 a×b2 where a and b are the long and short diameters of the tumor, respectively. The entire procedures of dosing as well as tumor and body weight measurement were conducted in a Laminar Flow Cabinet. Individual mice were euthanized by cervical dislocation when the tumor size reached 1400-1600 mm3. The surrogate endpoint for survival was calculated and indicated as TVx4 (initial tumor volume times 4). Statistical analysis of difference in tumor volume among the groups was conducted at the end of experiment using Independent-Samples T Test. All data were analyzed in SPSS (Statistical Product and Service Solutions) version 18.0 (IBM, Armonk, NY, U.S.). P-values were rounded to three decimal places, with the exception that raw P-values less than 0.001 were stated as P<0.001. All tests were two-sided. P<0.05 was considered to be statistically significant.
# For the MDA-MB-436 tumor (ATCC: HTB-130; Passage: P4) cells were maintained in vitro as a monolayer culture in L-15 medium supplemented with 10% heat inactivated fetal bovine serum at 37° C. in an atmosphere of 100% air. For NCI-H69 (ATCC: HTB-119; Passage: P3), tumor cells were maintained in vitro in RPMI1640 medium supplemented with 10% fetal bovine serum at 370C in an atmosphere of 5% CO2 in air. For PANC-1 (ATCC: CRL-1469; Passage: P2) tumor cells were maintained in vitro as a monolayer culture in DMEM medium supplemented with 10% heat inactivated fetal bovine serum at 37 °C in an atmosphere of 5% CO2 in air. The tumor cells were routinely sub-cultured twice weekly by trypsin-EDTA treatment. The cells growing in an exponential growth phase were harvested and counted for tumor inoculation. Each mouse was inoculated with 1×10^7 tumor cells (orthotopically at the right mammary fat pad for MDA-MB-436 model, or subcutaneously at the right flank region for both NCI-H69 model and PANC-1 model) in 0.1 ml of PBS mixed with Matrigel (1:1, Corning, #354234) for tumor development. […]
# [1] = system: NCI-H1650 tumor xenograft; test: lung cancer (NSCLC) xenograft model; assay type: in vivo, BALB/c Nude Mice
# Protocol: as §1
# After tumor cell inoculation, the animals were checked daily for morbidity and mortality. Before commencement of treatment all animals were weighed and the tumor volumes were measured using a caliper. The treatments were started when the mean tumor size reached approx. 250 mm^3. […] At the time of routine monitoring, the animals were checked for any effects of tumor growth and treatments on normal behavior such as mobility, visual estimation of food and water consumption, body weight gain/loss (body weights were measured daily during the 5-day treatment and thrice weekly after treatment), eye/hair matting and any other abnormal effect. Death and observed clinical signs were recorded on the basis of the numbers of animals within each subset. […] The surrogate endpoint for survival was calculated and indicated as TVx4 (initial tumor volume times 4). […] All data were analyzed in SPSS (Statistical Product and Service Solutions) version 18.0 (IBM, Armonk, NY, U.S.). […]
# SW1990 tumor xenograft = test: pancreatic cancer xenograft model; assay type: in vivo, BALB/c Nude Mice; conditions: 600 mg/kg IP, hypoxic status absent, methanesulfonate
# [2] = preliminary toxicology study, intravenous administration; assay type: in vivo, rat
# Protocol: Preliminary toxicology studies of the intravenous administration of Cpd.11 Ms in rats and dogs according to a dosing regimen consisting of 3 consecutive days of administration in a 3 weekly cycle (QDx3/cycle) have shown that potential haematological toxicity in tissues such as the bone marrow, the thymus and lymph nodes (known to have hypoxic niches) can be minimized at dosages at or below 400 mg/kg in the rat and at or below 100 mg/kg in the dog. As such, these levels correspond to 2360 mg/m^2 and 2000 mg/m^2, respectively, in human subjects. […] Alternative dosing regimens also include weekly administration for up to 3 or 4 consecutive times of each 3 or 4 weekly cycle. In addition, also an initial dose of QDx3 or QDx5 could be combined with less frequent administration schedules that may still allow a therapeutic effect over tumor growth and development, such as up to 3 or 4 weekly dosages in 3 to 4 weekly cycles, or once a month (or every three-four weeks) schedules that be applied with or without the parallel treatment with the appropriate standard-of-care protocols.
compound,measurement,setting,value
"CCN1CCN(C(=O)c2cc(N(CCBr)CCOS(C)(=O)=O)c(S(C)(=O)=O)cc2[N+](=O)[O-])CC1.CS(=O)(=O)O [Cpd.11 Ms, 4-(5-((2-bromoethyl) (2-((methylsulfonyl)oxy)ethyl)amino)-4-(methylsulfonyl)-2-nitrobenzoyl)-1-ethylpiperazin-1-ium methanesulfonate]",Anti-tumor effect,"NCI-H69 tumor xenograft; single treatment cycle, listed as Cpd.11Ms","Strong impact,"
same,Anti-tumor effect,NCI-H69 tumor xenograft; single treatment cycle,significant regression of the tumours
same,therapeutic response with alternative regimens,NCI-H69 tumor xenograft; repeated administration over 3 weeks,longer term tumor control
same,effects on body weight,"NCI-H69 tumor xenograft; single treatment cycle, IP",absence of effects on body weight
same,median surrogate survival index (TVx4) in comparison to vehicle treated animals,"NCI-H69 tumor xenograft; single treatment cycle, IP",doubled
same,Anti-tumor effect,"[1]; 600 mg/kg IP, hypoxic status confirmed","Clear impact,"
same,median surrogate survival index,[1]; single treatment cycle,significant effect
same,Anti-tumor effect,SW1990 tumor xenograft; listed as Cpd.11Ms,No impact
same,Anti-tumor effect,SW1990 tumor xenograft,not observed
same,corresponding level in human subjects of the rat dosage,[2]; from 400 mg/kg in the rat,2360 mg/m^2
same,"dosage at which potential haematological toxicity (bone marrow, thymus, lymph nodes) can be minimized","[2]; rat, intravenous, QDx3 in a 3 weekly cycle",≤ 400 mg/kg
